Experimental data reported in patent US20130337564A1, “Treatment of Pluripotent Cells” (Janssen Biotech, Inc., priority 2012, published 2013).
Several values for one entry are separate records, joined by “and”; a condition that tells them apart may be missing. Equal entries are not always repeated.

Key:
Type in all cases: cell-based
[1] = system: human embryonic stem cells (H9 or H1 lines); test: Plate reader (MTS) proliferation assay; conditions: for activity at 10 µM: Homo sapiens, Embryonic stem cell, 96 h; for activity at 10 µM / % Control Value (proliferation): 10 μM test compound with 100 ng/ml activin A on days 1-2, MTS OD490 on day 4, vs Activin A/Wnt3a positive control, strong and moderate hits; for Average (of Raw Data): plate reader raw signal, mean of replicate wells, proliferation of human embryonic stem cells; for Average: average of replicate raw data; for Raw Data: replicate wells, plate reader proliferation screen of GSK-3B inhibitors
Procedure: Maintenance of human embryonic stem cells (H9 or H1 lines) was conducted as described in Example 1. Colonies of cells were maintained in an undifferentiated, pluripotent state with passage on average every four days. Passage was performed by exposing cell cultures to a solution of collagenase (1 mg/ml; Sigma-Aldrich) for 10 to 30 minutes at 37° C. followed by gentle scraping with a pipette tip to recover cell clusters. Clusters were allowed to sediment and washed to remove residual collagenase. Cell clusters were split at a ratio of 1:3 monolayer area for routine culture or a 1:1 ratio for immediate assay. The human embryonis stem cell lines used for these examples were maintained at passage numbers less than 50 and routinely evaluated for normal karyotypic phenotype as well as absence of mycoplasm contamination.
Cell clusters used in assay were evenly resuspended in normal culture medium and plated into MATRIGEL-coated 96-well Packard VIEWPLATES (PerkinElmer) in volumes of 100 μl/well. MEF conditioned medium supplemented with 8 ng/ml bFGF) was used for initial plating and recovery. Daily feeding was conducted by aspirating spent culture medium from each well and replacing with an equal volume of fresh medium. Plates were maintained at 37° C. in a humidified box, 5% CO2 throughout the duration of assay.
Primary screening assays were initiated by aspirating culture medium from each well followed by three washes in PBS to remove residual growth factors and serum. Test volumes of 80-100 μl per well were added back containing DMEM:F12 base medium (Invitrogen) supplemented with 0.5% FCS (HyClone) and 100 ng/ml activin A (R&D Biosystems) and 10 μM test compound. Positive control wells contained the same medium substituting 10-20 ng/ml Wnt3a (R&D Biosystems). Negative control wells contained base medium with 0.5% FCS without activin A or Wnt3a. Screening compounds were tested in triplicate. Wells were aspirated and fed again with identical solutions on day 2 of the assay. On days 3 and 4, all assay wells were aspirated and converted to DMEM:F 12 supplemented with 2% FCS and 100 ng/ml activin A with the exception of negative control wells which were maintained in DMEM:F12 base medium with 2% FCS.
On day 4 of assay, 15-20 μl of MTS (Promega) was added to each well and plates were incubated at 37° C. for 1.5 to 4 hours. Densitometric readings at OD490 were determined using a Molecular Devices spectrophotometer plate reader. Average readings for replicate sets were calculated along with standard deviation and coefficient of variation. Experimental wells were compared to the Activin A/Wnt3a positive control to calculate a percent control value as a measure of proliferation.
Strong hits are defined as greater than or equal to 120% of control values; moderate hits are defined as falling within the interval of 60-120% of control values. A significant number of compounds induce a proliferative response in this assay.

[2] = system: HNF-3beta expression in human embryonic stem cells (H9 line); test: High content screening assay: HNF-3beta protein expression (differentiation); conditions: for fold induction at 10 µM: Homo sapiens, Embryonic stem cell, 10 μM test compound with 100 ng/ml activin A on days 1-2, H9, total intensity by IN Cell Analyzer, strong and moderate hits, read-out: HNF3β Expression, Fold over Wnt 3a/AA control
Summary of the method: (§1)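 H9 hESCs on MATRIGEL treated days 1-2 with 10 μM compound in DMEM:F12, 0.5% FCS, 100 ng/ml activin A; days 3-4 with 2% FCS plus activin A without compound. Fixed cells immunostained for Sox17 or HNF-3beta with Draq5 nuclear counterstain. Cell number and staining intensity quantified by high-content imaging, 12 fields/well.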

[3] = system: Sox17 expression in human embryonic stem cells (H9 line); test: High content screening assay: Sox17 protein expression (differentiation); conditions: for fold induction at 10 µM: Homo sapiens, Embryonic stem cell, 10 μM test compound with 100 ng/ml activin A on days 1-2, H9, total intensity by IN Cell Analyzer, strong and moderate hits, read-out: SOX17 Expression, Fold over Wnt 3a/AA control
Summary of the method: as §1

Row | SMILES | Average (of Raw Data) [1] | HNF-3b Expression Total Intensity [2] | SOX-17 Expression Total Intensity [3] | Average [1] | further results
1 | O=C1NC(=O)C(c2cn(CCCO)c3ncccc23)=C1c1ccccc1C(F)(F)F [Compound 16, 3-[1-(3-Hydroxypropyl)-1H-pyrrolo[2,3-b]pyridin-3-yl]-4-[2-(trifluoromethyl)phenyl]-1H-pyrrole-2,5-dione] | 0.8575 | – | – | – | activity at 10 µM [1]: 85.5%; fold induction at 10 µM [2]: 1.1; fold induction at 10 µM [3]: 0.648
2 | O=C1NC(=O)C(c2cn(CCCO)c3ncccc23)=C1c1cccs1 [Compound 17, 3-[1-(3-Hydroxypropyl)-1H-pyrrolo[2,3-b]pyridin-3-yl]-4-thiophen-2-yl-1H-pyrrole-2,5-dione] | 0.4114 | 14201404 | 14786632 | – | –
3 | O=C1NC(=O)C(c2cn(CCCO)c3ncccc23)=C1c1cc(Cl)sc1Cl [Compound 18, 3-(2,5-Dichlorothiophen-3-yl)-4-[1-(3-hydroxypropyl)-1H-pyrrolo[2,3-b]pyridin-3-yl]-1H-pyrrole-2,5-dione] | 0.1442 | 28439 | 0 | – | –
4 | COCCCn1cc(C2=C(c3ccccc3O)C(=O)NC2=O)c2cccnc21 [Compound 22, 3-(2-Hydroxyphenyl)-4-{1-[3-(methyloxy)propyl]-1H-pyrrolo[2,3-b]pyridin-3-yl}-1H-pyrrole-2,5-dione] | 0.3385 | 13689421 | 2188847 | – | –
5 | COc1ccccc1C1=C(c2cn(-c3ccc4ccccc4c3)c3ncccc23)C(=O)NC1=O [Compound 23, 3-[2-(Methyloxy)phenyl]-4-(1-naphthalen-2-yl-1H-pyrrolo[2,3-b]pyridin-3-yl)-1H-pyrrole-2,5-dione] | 0.4714 | 65100086 | 7121122 | – | –
6 | COc1ccccc1C1=C(c2cn(CCCNC(=O)OC(C)(C)C)c3ncccc23)C(=O)NC1=O [Compound 26, 1,1-Dimethylethyl [3-(3-{4-[2-(methyloxy)phenyl]-2,5-dioxo-2,5-dihydro-1H-pyrrol-3-yl}-1H-pyrrolo[2,3-b]pyridin-1-yl)propyl]carbamate] | 0.3611 | 15725984 | 15714170 | – | –
7 | COc1ccccc1C1=C(c2cn(CCCNC(C)=O)c3ncccc23)C(=O)NC1=O [Compound 27, N-[3-(3-{4-[2-(Methyloxy)phenyl]-2,5-dioxo-2,5-dihydro-1H-pyrrol-3-yl}-1H-pyrrolo[2,3-b]pyridin-1-yl)propyl]acetamide] | 0.1152 | 0 | 125443 | – | –
8 | O=C1NC(=O)C(c2cn(CCCO)c3ncccc23)=C1c1cnccn1 [Compound 47, 3-[1-(3-Hydroxypropyl)-1H-pyrrolo[2,3-b]pyridin-3-yl]-4-pyrazin-2-yl-1H-pyrrole-2,5-dione] | – | 560475000 | 382680000 | – | fold induction at 10 µM [2]: 1.22; fold induction at 10 µM [3]: 1.02
9 | O=C1NC(=O)C(c2nn(CCCO)c3ccccc23)=C1c1cn(-c2cccnc2)c2ccc(Cl)cc12 [Compound 52, 3-(5-Chloro-1-pyridin-3-yl-1H-indol-3-yl)-4-[1-(3-hydroxypropyl)-1H-indazol-3-yl]-1H-pyrrole-2,5-dione] | – | – | – | 1.0617 | activity at 10 µM [1]: 136%
10 | CN(C)CCCn1c2c(c3ccccc31)C1=C(C(=O)NC1=O)N(c1cccc(Cl)c1)C2 [Compound 101, 4-(3-Chlorophenyl)-6-[3-(dimethylamino)propyl]-5,6-dihydropyrrolo[3′,4′:5,6]pyrido[3,4-b]indole-1,3(2H,4H)-dione] | – | – | – | 1.0316 | activity at 10 µM [1]: 155%
11 | CCN1CCOCCOCCn2cc(c3ccccc32)C2=C(C(=O)NC2=O)c2cn(c3ccccc23)CC1 [Compound 103, 14-Ethyl-6,7,9,10,13,14,15,16-octahydro-12H,23H-5,26:17,22-di(metheno)dibenzo[k,q]pyrrolo[3,4-n][1,4,7,10,19]dioxatriacyclohenicosine-23,25(24H)-dione] | – | – | – | 0.5236 | % Control Value (proliferation) [1]: 68.7%; Raw Data [1]: 0.7125 and 0.3347
12 | O=C1NC(=O)C(c2cn(CCOCCOCCO)c3ccccc23)=C1c1cn(CCO)c2ccccc12 [Compound 110, 3-[1-(2-Hydroxyethyl)-1H-indol-3-yl]-4-{1-[2-({2-[(2-hydroxyethyl)oxy]ethyl}oxy)ethyl]-1H-indol-3-yl}-1H-pyrrole-2,5-dione] | – | – | – | 1.0686 | activity at 10 µM [1]: 161%
13 | CN1CCN(C)CCn2cc(c3ccccc32)C2=C(C(=O)NC2=O)c2cn(c3ccccc23)CC1 [Compound 111, 8,11-Dimethyl-6,7,8,9,10,11,12,13-octahydro-20H-5,23:14,19-di(metheno)dibenzo[k,q]pyrrolo[3,4-n][1,4,7,10]tetraazacyclooctadecine-20,22(21H)-dione] | – | – | – | 0.8784 | % Control Value (proliferation) [1]: 128.7%; Raw Data [1]: 1.0689 and 0.6879
14 | CN1CCOCCOCCN(C)CCn2cc(c3ccccc32)C2=C(C(=O)NC2=O)c2cn(c3ccccc23)CC1 [Compound 112, 12,21-Dimethyl-11,12,13,14,16,17,20,21,22,23-decahydro-1H,10H,19H-9,4:24,29-di(metheno)dibenzo[k,q]pyrrolo[3,4-n][1,4,7,10,19,22]dioxatetraazacyclotetracosine-1,3(2H)-dione] | – | – | – | 0.9024 | % Control Value (proliferation) [1]: 132.8%; Raw Data [1]: 1.0444 and 0.7603
15 | O=C1NC(=O)C2=C1c1cn(c3ccccc13)CCOCCOCCN(Cc1cccs1)CCn1cc2c2ccccc21 [Compound 133, 14-(2-Thienylmethyl)-6,7,9,10,13,14,15,16-octahydro-12H,23H-5,26:17,22-di(metheno)dibenzo[k,q]pyrrolo[3,4-n][1,4,7,10,19]dioxatriazacyclohenicosine-23,25(24H)-dione] | – | – | – | 1.0839 | % Control Value (proliferation) [1]: 149.3%; Raw Data [1]: 1.0786 and 1.0891
16 | O=C1NC(=O)C2=C1c1cn(c3ccccc13)CCOCCOCCN(Cc1cccc3ccccc13)CCn1cc2c2ccccc21 [Compound 136, 14-(Naphthalen-1-ylmethyl)-6,7,9,10,13,14,15,16-octahydro-12H,23H-5,26:17,22-di(metheno)dibenzo[k,q]pyrrolo[3,4-n][1,4,7,10,19]dioxatriazacyclohenicosine-23,25(24H)-dione] | – | – | – | 0.9509 and 0.9309 | % Control Value (proliferation) [1]: 128.8% and 125.7%; Raw Data [1]: 0.8618 and 1.0400 and 0.8430 and 1.0187
17 | O=C1NC(=O)C(c2cn(CCOCCOCCNC3CCCc4ccccc43)c3ccccc23)=C1c1cn(CCNC2CCCc3ccccc32)c2ccccc12 (stereo not drawn) [Compound 144, 3-{1-[2-(1,2,3,4-Tetrahydronaphthalen-1-ylamino)ethyl]-1H-indol-3-yl}-4-(1-{2-[(2-{[2-(1,2,3,4-tetrahydronaphthalen-1-ylamino)ethyl]oxy}ethyl)oxy]ethyl}-1H-indol-3-yl)-1H-pyrrole-2,5-dione] | – | 231745000 | 339840000 | 1.2160 | activity at 10 µM [1]: 84%
